The text below walks through data of patent US20250304537A1 (Repare Therapeutics Inc., priority 2022, published 2025).

A word on the IC50: it is the concentration that inhibits the measured activity by half.

Read-outs that look alike come from different tables or passages of the source.

Assay [1] concerns the target recombinant human Myt1 (full length PKMYT1) (Homo sapiens (Human), UniProt Q99640). The assay can be described thus: Recombinant human Myt1 kinase assay (ADP-Glo). It counts as biochemical. Particulars: 10 μM ATP. In a few lines: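 Full-length insect-cell-expressed human Myt1 (18 nM final) was preincubated with compound (0.5% DMSO) for 15 min at 22 °C. The reaction ran with 10 μM ATP for 60 min at 30 °C in HEPES buffer with Mg2+/Mn2+ and DTT. ADP formed was read by ADP-Glo luminescence, giving IC50 and % max inhibition.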
On the technique in general: ADP-Glo first removes unused ATP, then detects ADP through luciferase.

The test system of assay [2] is PKMYT1 (CDK1 pThr14) in FUOV1 cells. In words: PKMYT1 cell-based activity assay, CDK1 pThr14 AlphaLISA in FUOV1 cells. Particulars: 2 h incubation, read-out: FUOV-1 CDK1 pThr14 IC50. In outline:
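FUOV1 cells were treated with PKMYT1 inhibitor for 2 h at 37 °C, then lysed. CDK1 pThr14 was measured by AlphaLISA, pairing an anti-pThr14 antibody with an anti-total CDK1 antibody (5 nM each). Signal read at 680/615 nm and used to derive IC50.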
Background: Alpha assays give light when donor and acceptor beads are brought close together.

recombinant human Myt1 (full length PKMYT1), sequence (Q99640 whole entry): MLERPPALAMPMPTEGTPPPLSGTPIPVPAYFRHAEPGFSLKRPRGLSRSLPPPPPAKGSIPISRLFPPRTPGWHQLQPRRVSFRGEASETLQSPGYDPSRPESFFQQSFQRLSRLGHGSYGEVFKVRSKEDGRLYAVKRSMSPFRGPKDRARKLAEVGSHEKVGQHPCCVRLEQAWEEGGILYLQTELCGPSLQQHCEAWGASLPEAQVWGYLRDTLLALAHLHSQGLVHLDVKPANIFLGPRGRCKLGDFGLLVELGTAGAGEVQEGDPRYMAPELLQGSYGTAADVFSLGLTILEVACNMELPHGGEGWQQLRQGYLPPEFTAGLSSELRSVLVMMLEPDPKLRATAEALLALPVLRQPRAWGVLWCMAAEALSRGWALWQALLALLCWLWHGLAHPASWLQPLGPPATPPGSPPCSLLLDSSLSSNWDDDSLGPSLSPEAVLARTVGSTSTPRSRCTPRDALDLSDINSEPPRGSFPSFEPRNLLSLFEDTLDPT

On to `CNCCOc1nccc(-c2cc(-c3c(C)ccc4[nH]ncc34)c(N)c(C(N)=O)n2)n1` [Compound 210], for which the results for the IC50 in assay [1] and in assay [2] (2 h) were 10 nM and 335 nM, respectively.

`Cc1ccc2[nH]ncc2c1-c1cc(-c2ccnc(OCC3CCCO3)n2)nc(C(N)=O)c1N` (stereo not drawn) [Compound 211]: the IC50 in assay [1] amounted to 7 nM; in assay [2] (2 h) it was 184 nM.

`Cc1ccc2[nH]ncc2c1-c1cc(-c2ccnc(OC3CCOC3)n2)nc(C(N)=O)c1N` (stereo not drawn) [Compound 212]: the IC50 is 12 nM in assay [1] and 192 nM in assay [2] (2 h).

Take `COCCNc1nccc(-c2cc(-c3c(C)ccc4[nH]ncc34)c(N)c(C(N)=O)n2)n1` [Compound 214, 3-amino-6-(2-((2-methoxyethyl)amino)pyrimidin-4-yl)-4-(5-methyl-1H-indazol-4-yl)picolinamide]: the IC50 came out at 5 nM in assay [1] and 444 nM in assay [2] (2 h).

`Cc1ccc2[nH]ncc2c1-c1cc(-c2ccnc(OC3(C)COC3)n2)nc(C(N)=O)c1N` [Compound 220]: the IC50 was found to be 4 nM in assay [1] and 150 nM in assay [2] (2 h).

Regarding `CCC(COC)Oc1nccc(-c2cc(-c3c(C)ccc4[nH]ncc34)c(N)c(C(N)=O)n2)n1` (stereo not drawn) [Compound 221], the IC50 in assay [1] turned out to be 7 nM; in assay [2] (2 h), 270 nM.

Take `Cc1ccc2[nH]ncc2c1-c1cc(-c2csc(OC3COC3)n2)nc(C(N)=O)c1N` [Compound 224]: the IC50 was 40 nM in assay [1] and 252 nM in assay [2] (2 h).

Consider `Cc1ccc2[nH]ncc2c1-c1cc(-c2cccc(OCc3ccccn3)n2)nc(C(N)=O)c1N` [Compound 228], for which the IC50 in assay [1] worked out at 6 nM; in assay [2] (2 h), 387 nM.

For `Cc1ccc2[nH]ncc2c1-c1cc(-c2ccnc(OCc3ccccn3)n2)nc(C(N)=O)c1N` [Compound 229], the IC50 in assay [1] was 4 nM; in assay [2] (2 h) it was 134 nM.

Regarding `Cc1ccc2[nH]ncc2c1-c1cc(-c2ccnc(OCc3ccncc3)n2)nc(C(N)=O)c1N` [Compound 230], the IC50 in assay [1] turned out to be 4 nM; in assay [2] (2 h) it was 208 nM.

On to `Cc1ccc2[nH]ncc2c1-c1cc(-c2ccnc(OCc3ncccn3)n2)nc(C(N)=O)c1N` [Compound 235], for which the IC50 turned out to be 7 nM in assay [1] and 39 nM in assay [2] (2 h).

As to `Cc1ccc2[nH]ncc2c1-c1cc(-c2ccnc(OCCc3ccccn3)n2)nc(C(N)=O)c1N` [Compound 239], the figures for the half-inhibitory concentration (IC50) in assay [1] and in assay [2] (2 h) were 4 nM and 903 nM, respectively.

In the case of `Cc1ccc2[nH]ncc2c1-c1cc(-c2ccnc(OCCc3ncc[nH]3)n2)nc(C(N)=O)c1N` [Compound 240], the values for the IC50 in assay [1] and in assay [2] (2 h) were 8 nM and 996 nM, respectively.

As for `Cc1ccc2[nH]ncc2c1-c1cc(-c2cccc(F)n2)nc(C(N)=O)c1N` [Compound 241], the values for the IC50 in assay [1] and in assay [2] (2 h) were 10 nM and 1970 nM, respectively.

Take `Cc1ccc2[nH]ncc2c1-c1cc(-c2cccc(OCc3cccnn3)n2)nc(C(N)=O)c1N` [Compound 242]: the IC50 in assay [1] was found to be 7 nM; in assay [2] (2 h), 243 nM.

Regarding `Cc1ccc2[nH]ncc2c1-c1cc(-c2cccc(OCc3ccncn3)n2)nc(C(N)=O)c1N` [Compound 244], the IC50 is 11 nM in assay [1] and 193 nM in assay [2] (2 h).

`COCCOc1cccc(-c2cc(-c3c(C)ccc4[nH]ncc34)c(N)c(C(N)=O)n2)n1` [Compound 245]: the IC50 in assay [1] was 10 nM; in assay [2] (2 h), 539 nM.

Consider `Cc1ccc2[nH]ncc2c1-c1cc(-c2cccc(OCc3nccn3C)n2)nc(C(N)=O)c1N` [Compound 249], for which the IC50 in assay [1] came out at 5 nM; in assay [2] (2 h) it was 85 nM.

In the case of `Cc1ccc2[nH]ncc2c1-c1cc(-c2cccc(OCc3cnccn3)n2)nc(C(N)=O)c1N` [Compound 250], the figures for the IC50 in assay [1] and in assay [2] (2 h) were 8 nM and 752 nM, respectively.

With `Cc1ccc2[nH]ncc2c1-c1cc(-c2ccnc(OCc3ncccn3)n2)nc(C(N)=O)c1N` [Compound 251], the results for the IC50 in assay [1] and in assay [2] were 3 nM and 46 nM, respectively.

Consider `Cc1ccc2[nH]ncc2c1-c1cc(-c2cccc(O[C@H](C)c3ncccn3)n2)nc(C(N)=O)c1N` [Compound 254], for which the IC50 in assay [1] was found to be 5 nM; in assay [2] (2 h) it was 204 nM.

With `Cc1ccc2[nH]ncc2c1-c1cc(-c2cccc(OC3(c4ncccn4)COC3)n2)nc(C(N)=O)c1N` [Compound 256], the IC50 in assay [1] came to 21 nM; in assay [2] (2 h) it was 132 nM.

As for `Cc1ccc2[nH]ncc2c1-c1cc(-c2cc(Cl)ccn2)nc(C(N)=O)c1N` [Compound 257], the IC50 in assay [1] turned out to be 12 nM; in assay [2] (2 h) it was 1170 nM.

Regarding `Cc1ccc2[nH]ncc2c1-c1cc(-c2cccc(OCc3nccs3)n2)nc(C(N)=O)c1N` [Compound 261], the IC50 in assay [1] worked out at 6 nM; in assay [2] (2 h), 544 nM.

As for `Cc1ccc2[nH]ncc2c1-c1cc(-c2cccc(OCc3cncnc3)n2)nc(C(N)=O)c1N` [Compound 262], the IC50 in assay [1] was 7 nM; in assay [2] (2 h), 507 nM.

As to `Cc1ccc2[nH]ncc2c1-c1cc(-c2ccnc(OCCc3cc[nH]n3)n2)nc(C(N)=O)c1N` [Compound 265], the IC50 in assay [1] was 4 nM; in assay [2] (2 h), 387 nM.

As to `Cc1ccc2[nH]ncc2c1-c1cc(-c2cccc(OCc3ncco3)n2)nc(C(N)=O)c1N` [Compound 267], the IC50 was 4 nM in assay [1] and 191 nM in assay [2].

Turning to `Cc1ccc2[nH]ncc2c1-c1cc(-c2cccc(OCC3COC3)n2)nc(C(N)=O)c1N` [Compound 268], the IC50 came out at 9 nM in assay [1] and 261 nM in assay [2] (2 h).

In the case of `Cc1ccc2[nH]ncc2c1-c1cc(-c2cccc(N[C@H](CO)c3ccccc3)n2)nc(C(N)=O)c1N` [Compound 274], the results for the IC50 in assay [1] and in assay [2] (2 h) were 3 nM and 136 nM, respectively.

With `Cc1ccc2[nH]ncc2c1-c1cc(-c2cccc(OC[C@H](N)c3ccccc3)n2)nc(C(N)=O)c1N` [Compound 276], the IC50 was determined as 2 nM in assay [1] and 11 nM in assay [2].

For the compound `Cc1ccc2[nH]ncc2c1-c1cc(-c2cccc(OCc3cscn3)n2)nc(C(N)=O)c1N` [Compound 278], the results for the IC50 in assay [1] and in assay [2] (2 h) were 5 nM and 158 nM, respectively.

As to `Cc1ccc2[nH]ncc2c1-c1nc(-c2cccc(OCC#N)c2)nc(C(N)=O)c1N` [Compound 288], the concentration for half-maximal inhibition (IC50) in assay [1] stood at 8 nM; in assay [2] (2 h), 652 nM.

Turning to `Cc1nnc(-c2cccc(-c3nc(C(N)=O)c(N)c(-c4c(C)ccc5[nH]ncc45)n3)c2)o1` [Compound 290], the IC50 was found to be 6 nM in assay [1] and 167 nM in assay [2] (2 h).

For `Cc1ccc2[nH]ncc2c1-c1nc(-c2ccc3c(c2)OCO3)nc(C(N)=O)c1N` [Compound 297], the values for the IC50 in assay [1] and in assay [2] (2 h) were 9 nM and 422 nM, respectively.

In the case of `Cc1ccc2[nH]ncc2c1-c1cc(-c2ccnc(OCCO)n2)nc(C(N)=O)c1N` [Compound 299], the IC50 in assay [1] is 13 nM; in assay [2] (2 h), 232 nM.

Regarding `CCC(COc1nccc(-c2cc(-c3c(C)ccc4[nH]ncc34)c(N)c(C(N)=O)n2)n1)OC` (stereo not drawn) [Compound 302], the figures for the IC50 in assay [1] and in assay [2] (2 h) were 4 nM and 23 nM, respectively.

In the case of `COC(C)COc1nccc(-c2cc(-c3c(C)ccc4[nH]ncc34)c(N)c(C(N)=O)n2)n1` (stereo not drawn) [Compound 303], the IC50 in assay [1] was 7 nM; in assay [2] (2 h) it was 155 nM.

For `Cc1ccc2[nH]ncc2c1-c1cc(-c2cccc(OC3CCCOC3)n2)nc(C(N)=O)c1N` (stereo not drawn) [Compound 306], the IC50 in assay [1] is 7 nM; in assay [2] (2 h), 449 nM.

On to `Cc1ccc2[nH]ncc2c1-c1cc(-c2ccnc(OCCc3ccn(C)n3)n2)nc(C(N)=O)c1N` [Compound 312], for which the IC50 in assay [1] worked out at 9 nM; in assay [2] (2 h), 596 nM.
